{"source": "patent EP2042491A1", "about": "“Pyridazines as fungicides” (Bayer CropScience AG, priority 2007, dated 2009)", "key": {"[1]": {"test_system": "Pyricularia oryzae", "type": "in vivo", "conditions": "500 ppm active compound; protective spray on young rice plants; evaluated 7 days after inoculation; 0% = as control, 100% = no infection"}, "[2]": {"test_system": "Sphaerotheca fuliginea", "experiment": "Sphaerotheca fuliginea test (cucumber) / protective", "type": "in vivo", "conditions": "500 ppm active compound; protective spray on young cucumber plants; evaluated 7 days after inoculation; 0% = as control, 100% = no infection", "description": "(§1) Zur Herstellung einer zweckmäßigen Wirkstoffzubereitung vermischt man 1 Gewichtsteil Wirkstoff mit den angegebenen Mengen Lösungsmittel und Emulgator und verdünnt das Konzentrat mit Wasser auf die gewünschte Konzentration.\nZur Prüfung auf protektive Wirksamkeit bespritzt man junge Gurkenpflanzen mit der Wirkstoffzubereitung in der angegebenen Aufwandmenge. 1 Tag nach der Behandlung werden die Pflanzen mit einer Sporensuspension von Sphaerotheca fuliginea inokuliert. Anschließend werden die Pflanzen in einem Gewächshaus bei 70 % relativer Luftfeuchtigkeit und einer Temperatur von 23 °C aufgestellt.\n7 Tage nach der Inokulation erfolgt die Auswertung. Dabei bedeutet 0 % ein Wirkungsgrad, der demjenigen der Kontrolle entspricht, während ein Wirkungsgrad von 100 % bedeutet, daß kein Befall beobachtet wird."}, "[3]": {"experiment": "physchem"}, "[4]": {"test_system": "Alternaria solani", "type": "in vivo", "conditions": "168 h, 500 ppm", "procedure": "as §1\nZur Prüfung auf protektive Wirksamkeit bespritzt man junge Tomatenpflanzen mit der Wirkstoffzubereitung in der angegebenen Aufwandmenge. 1 Tag nach der Behandlung werden die Pflanzen mit einer Sporensuspension von Alternaria solani inokuliert und stehen dann 24h bei 100% rel. Feuchte und 20°C. Anschließend stehen die Pflanzen bei 96% rel. Luftfeuchtigkeit und einer Temperatur von 20 C.\n7 Tage nach der Inokulation erfolgt die Auswertung. Dabei bedeutet 0 % ein Wirkungsgrad, der demjenigen der Kontrolle entspricht, während ein Wirkungsgrad von 100 % bedeutet, dass kein Befall beobachtet wird."}, "[5]": {"test_system": "Leptosphaeria nodorum", "experiment": "Leptosphaeria nodorum test (wheat) / protective", "type": "in vivo", "conditions": "1000 ppm active compound; protective spray on young wheat plants; evaluated 10 days after inoculation; 0% = as control, 100% = no infection", "description": "as §1\n(§2) Zur Prüfung auf protektive Wirksamkeit werden junge Pflanzen mit der Wirkstoffzubereitung in der angegebenen Aufwandmenge besprüht. Nach Antrocknen des Spritzbelages werden die Pflanzen mit einer Sporensuspension von Leptosphaeria nodor um besprüht. Die Pflanzen verbleiben 48 Stunden bei 20 °C und 100 % relativer Luftfeuchtigkeit in einer Inkubationskabine.\nDie Pflanzen werden in einem Gewächshaus bei einer Temperatur von ca. 20 °C und einer relativen Luftfeuchtigkeit von 80 % aufgestellt.\n(§3) 10 Tage nach der Inokulation erfolgt die Auswertung. Dabei bedeutet 0% ein Wirkungsgrad, der demjenigen der Kontrolle entspricht, während ein Wirkungsgrad von 100% bedeutet, daß kein Befall beobachtet wird."}, "[6]": {"conditions": "HPLC on reversed-phase C18, 40°C, 0.1% aqueous formic acid / acetonitrile, linear gradient 10-95% acetonitrile"}, "[7]": {"test_system": "Venturia inaequalis", "experiment": "Venturia inaequalis test (apple) / protective", "type": "in vivo", "conditions": "100 ppm active compound; protective spray on young apple plants; evaluated 10 days after inoculation; 0% = as control, 100% = no infection", "description": "as §1\nZur Prüfung auf protektive Wirksamkeit werden junge Pflanzen mit der Wirkstoffzubereitung in der angegebenen Aufwandmenge besprüht. Nach Antrocknen des Spritzbelages werden die Pflanzen mit einer wäßrigen Konidiensuspension des Apfelschorferregers Venturia inaequalis inokuliert und verbleiben dann 1 Tag bei ca. 20 °C und 100% relativer Luftfeuchtigkeit in einer Inkubations-kabine.\nDie Pflanzen werden dann im Gewächshaus bei ca. 21 °C und einer relativen Luftfeuchtigkeit von ca. 90% aufgestellt.\nas §3"}, "[8]": {"test_system": "Septoria tritici", "experiment": "Septoria tritici test (wheat) / protective", "type": "in vivo", "conditions": "1000 ppm active compound; protective spray on young wheat plants; evaluated 21 days after inoculation; 0% = as control, 100% = no infection", "description": "as §1\nas §2, with “Septoria tritici” for “Leptosphaeria nodor um”\nDie Pflanzen werden in einem Gewächshaus bei einer Temperatur von ca. 15 °C und einer relativen Luftfeuchtigkeit von 80 % aufgestellt.\n21 Tage nach der Inokulation erfolgt die Auswertung. Dabei bedeutet 0% ein Wirkungsgrad, der demjenigen der Kontrolle entspricht, während ein Wirkungsgrad von 100% bedeutet, daß kein Befall beobachtet wird."}, "[9]": {"test_system": "Botrytis cinerea", "experiment": "Botrytis cinerea test (bean) / protective", "type": "in vivo", "conditions": "100 ppm active compound; protective spray on young bean plants; lesion size evaluated 2 days after inoculation; 0% = as control, 100% = no infection", "description": "as §1\nZur Prüfung auf protektive Wirksamkeit werden junge Pflanzen mit der Wirkstoffzubereitung in der angegebenen Aufwandmenge besprüht. Nach Antrocknen des Spritzbelages werden auf jedes Blatt 2 kleine mit Botrytis cinerea bewachsene Agarstückchen aufgelegt. Die inokulierten Pflanzen werden in einer abgedunkelten Kammer bei ca. 20 °C und 100% relativer Luftfeuchtigkeit aufgestellt.\n2 Tage nach der Inokulation wird die Größe der Befallsflecken auf den Blättern ausgewertet. Dabei bedeutet 0% ein Wirkungsgrad, der demjenigen der Kontrolle entspricht, während ein Wirkungsgrad von 100% bedeutet, daß kein Befall beobachtet wird."}}, "note": "Where two headings read alike, the source gives them in different places.", "data": [{"smiles": "Cc1nnc(Cl)c(-c2c(F)cccc2Cl)c1OC1CCCCC1", "note": "[2-59]", "values": [{"measurement": "Wirkungsgrad", "setting": "[1]", "result": "≥ 70", "unit": "%"}, {"measurement": "Wirkungsgrad", "setting": "[2]", "result": "≥ 70", "unit": "%"}, {"measurement": "chromatographic logP", "setting": "[3]", "result": 4.25}]}, {"smiles": "Cc1nnc(Cl)c(-c2c(F)cccc2Cl)c1N[C@H](C)C(C)C", "note": "[1-100]", "values": [{"measurement": "Wirkungsgrad", "setting": "[4]", "result": "≥ 70", "unit": "%"}, {"measurement": "Wirkungsgrad", "setting": "[1]", "result": "≥ 70", "unit": "%"}, {"measurement": "Wirkungsgrad", "setting": "[2]", "result": "≥ 70", "unit": "%"}, {"measurement": "chromatographic logP", "setting": "[3]", "result": 3.22}]}, {"smiles": "Cc1nnc(Cl)c(-c2c(F)cccc2Cl)c1Oc1ccc(Cl)cc1", "note": "[2-61, 3-Chlor-4-(2-chlor-6-fluorphenyl)-5-(4-chlorphenoxy)-6-methylpyridazin]", "values": [{"measurement": "Wirkungsgrad", "setting": "[5]", "result": "≥ 70", "unit": "%"}, {"measurement": "logP^a)", "setting": "[6]; Table 2", "result": "4,13"}, {"measurement": "Wirkungsgrad", "setting": "[7]", "result": "≥ 70", "unit": "%"}, {"measurement": "Wirkungsgrad", "setting": "[8]", "result": "≥ 70", "unit": "%"}]}, {"smiles": "Cc1nnc(Cl)c(-c2c(F)cccc2Cl)c1N1CCC(C)CC1", "note": "[1-93, 3-Chlor-4-(2-chlor-6-fluorphenyl)-6-methyl-5-(4-methylpiperidin-1-yl)pyridazin]", "values": [{"measurement": "Wirkungsgrad", "setting": "[5]", "result": "≥ 70", "unit": "%"}, {"measurement": "logP^a)", "setting": "[6]; Table 1", "result": "4,11"}, {"measurement": "Wirkungsgrad", "setting": "[9]", "result": "≥ 70", "unit": "%"}, {"measurement": "Wirkungsgrad", "setting": "[4]", "result": "≥ 70", "unit": "%"}, {"measurement": "Wirkungsgrad", "setting": "[7]", "result": "≥ 70", "unit": "%"}, {"measurement": "Wirkungsgrad", "setting": "[1]", "result": "≥ 70", "unit": "%"}, {"measurement": "chromatographic logP", "setting": "[3]", "result": 4.11}, {"measurement": "Wirkungsgrad", "setting": "[8]", "result": "≥ 70", "unit": "%"}]}]}
